Assay results from US5409933A, “Quinoline derivatives and processes for preparing the same” (priority 1993, dated 1995).
Counter-ions that a name gives are not always drawn. Like-named read-outs stand apart in the source and are kept apart here.

Columns and labels:
Assay in all cases: In Vitro Anti-Bacterial Activity Test (MIC, agar dilution)
Format in all cases: cell-based
[1] = system: Enterobacter cloacae 1321E; conditions: Enterobacter cloacae 1321E; Muller-Hinton agar, 37° C., 18 hours; read-out: MIC
Outline: (§1)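 Agar-incorporation MIC: Muller-Hinton medium, 10^7 C.F.U./ml inoculum, 18 h incubation at 37° C., growth checked by eye; ciprofloxacin reference.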

Enterobacter cloacae P99 = conditions: Enterobacter cloacae, P99, 18 h
Outline: (§2)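 Via the agar dilution method, compound-supplemented Muller-Hinton plates received 10^7 C.F.U./ml inocula. Incubation ran 18 hours at 37° C., and MIC corresponded to the lowest concentration without growth.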

Escherichia coli 078 = system: Escherichia coli 078
Outline: as §1

Escherichia coli 1507E = conditions: Muller-Hinton agar, 37° C.
Outline: as §1

Escherichia coli DC0 = conditions: Muller-Hinton agar, 37° C., 18 hours, read-out: MIC
Outline: as §1

Escherichia coli DC2 = system: Escherichia coli DC2
Outline: as §1

Escherichia coli TEM = conditions: Escherichia coli, 18 h, Muller-Hinton agar, 37° C.
Outline: as §2

[2] = system: Klebsiella aerogenes 1522E; conditions: Klebsiella aerogenes, 1522E, 18 h
Outline: as §1

Klebsiella oxytoca 1082E = conditions: Klebsiella oxytoca 1082E; Muller-Hinton agar, 37° C., 18 hours; read-out: MIC
Outline: as §1

[3] = system: Pseudomonas aeruginosa 1592E; conditions: Muller-Hinton agar, 37° C., 18 hours, read-out: MIC
Outline: as §1

[4] = system: Pseudomonas aeruginosa 1771M; conditions: Pseudomonas aeruginosa, 1771M, 18 h, Muller-Hinton agar, 37° C.
Outline: as §1

[5] = system: Pseudomonas aeruginosa 1771; conditions: Pseudomonas aeruginosa 1771; Muller-Hinton agar, 37° C., 18 hours; read-out: MIC
Outline: as §1

[6] = system: Pseudomonas aeruginosa 9027; conditions: Muller-Hinton agar, 37° C., 18 hours, read-out: MIC
Outline: as §1

Salmonella typhimurium = conditions: Salmonella enterica; Salmonella typhimurium; Muller-Hinton agar, 37° C., 18 hours; read-out: MIC
Outline: as §1

[7] = system: Staphylococcus aureus 285; conditions: Staphylococcus aureus, 285, 18 h
Outline: as §1

[8] = system: Staphylococcus aureus 503; conditions: Staphylococcus aureus 503; Muller-Hinton agar, 37° C., 18 hours; read-out: MIC
Outline: as §1

[9] = system: Staphylococcus aureus SG511; conditions: Staphylococcus aureus SG511; Muller-Hinton agar, 37° C., 18 hours; read-out: MIC
Outline: as §1

[10] = system: Streptococcus faecium MD8b; conditions: Enterococcus faecium, Muller-Hinton agar, 37° C., 18 hours, read-out: MIC
Outline: as §1

[11] = system: Streptococcus pyogenes 308A; conditions: Muller-Hinton agar, 37° C., 18 hours, read-out: MIC
Outline: as §1

[12] = system: Streptococcus pyogenes 77A
Outline: as §1

[13] = Escherichia coli DC2, Muller-Hinton agar, 37° C., 18 hours, read-out: MIC
[14] = Staphylococcus aureus 285, Muller-Hinton agar, 37° C., 18 hours, read-out: MIC
[15] = Streptococcus pyogenes 77A, Muller-Hinton agar, 37° C., 18 hours, read-out: MIC
[16] = Klebsiella aerogenes 1522E, Muller-Hinton agar, 37° C., 18 hours, read-out: MIC

Structure (SMILES)	MIC [1] [µg/mL]	MIC (Enterobacter cloacae P99) [µg/mL]	MIC (Escherichia coli 078; Escherichia coli, 078, 18 h) [µg/mL]	MIC (Escherichia coli 1507E; Escherichia coli, 1507E, 18 h) [µg/mL]	MIC (Escherichia coli DC0) [µg/mL]	MIC (Escherichia coli TEM) [µg/mL]	MIC (Klebsiella oxytoca 1082E) [µg/mL]	MIC [3] [µg/mL]	MIC [4] [µg/mL]	MIC [5] [µg/mL]	MIC [6] [µg/mL]	MIC (Salmonella typhimurium) [µg/mL]	MIC [7, 14] [µg/mL]	MIC [8] [µg/mL]	MIC [9] [µg/mL]	MIC [10] [µg/mL]	MIC [11] [µg/mL]	MIC [12, 15] [µg/mL]	MIC (Escherichia coli DC2; Escherichia coli, DC2, 18 h) [µg/mL]	MIC [2, 16] [µg/mL]	further results
CCOC(=O)C(C#N)C(=O)c1cn(C2CC2)c2c(Cl)c(N3CC=C(CNC)C3)c(F)cc2c1=O (stereo not drawn) [Example 40, 1-cyclopropyl-6-fluoro-8-chloro-7-(3-methylaminomethyl-2,5-dihydropyrrol-1-yl)-3-(2-cyano-2-ethoxycarbonylacetyl)-1,4-dihydro-4-oxoquinoline hydrochloride]	0.049	0.391	0.098	0.781	6.25	0.391	0.049	6.25	3.12	6.25	12.5	0.195	3.12	1.56	1.56	12.5	25	12.5	–	–	MIC (Escherichia coli DC2; [13]): 3.12 µg/mL; MIC [2]: 0.391 µg/mL
CCOC(=O)C(C#N)C(=O)c1cn(C2CC2)c2c(Cl)c(N3CC4=C(CNC4)C3)c(F)cc2c1=O (stereo not drawn) [Example 41, 1-cyclopropyl-6-fluoro-8-chloro-7-(3,7-diazabicyclo[3.3.0]oct-1,5-en-3-yl)-3-(2-cyano-2-ethoxycarbonylacetyl)-1,4-dihydro-4-oxoquinoline hydrochloride]	0.049	0.098	0.049	0.391	3.12	0.195	0.049	3.12	1.56	3.12	6.25	0.098	6.25	6.25	3.12	25	25	12.5	1.56	–	MIC [2]: 0.195 µg/mL
N#CCC(=O)c1cn(C2CC2)c2c(Cl)c(N3CCC(N)C3)c(F)cc2c1=O (stereo not drawn) [Example 42, 1-cyclopropyl-6-fluoro-8-chloro-7-(3-aminopyrrolidin-1-yl)-3-(2-cyanoacetyl)-1,4-dihydro-4-oxoquinoline hydrochloride]	0.098	0.781	0.098	0.195	12.5	0.781	0.098	12.5	6.25	6.25	2.5	1.56	3.12	3.12	6.25	12.5	25	12.5	–	1.56	MIC (Escherichia coli DC2; [13]): 3.12 µg/mL
CNCC1=CCN(c2c(F)cc3c(=O)c(C(=O)CC#N)cn(C4CC4)c3c2Cl)C1 [Example 43, 1-cyclopropyl-6-fluoro-8-chloro-7-(3-methylaminomethyl-2,5-dihydropyrrol-1-yl)-3-(2-cyanoacetyl)-1,4-dihydro-4-oxoquinoline hydrochloride]	0.049	0.391	–	–	3.12	1.56	0.098	12.5	1.56	3.12	6.25	0.195	3.12	0.195	3.12	12.5	25	25	1.56	0.781	MIC (Escherichia coli 078; Escherichia coli 078, Muller-Hinton agar, 37° C., 18 hours, read-out: MIC): 6.25 µg/mL; MIC (Escherichia coli 1507E; 18 hours, read-out: MIC): 12.5 µg/mL
N#CCC(=O)c1cn(C2CC2)c2c(Cl)c(N3CC4=C(CNC4)C3)c(F)cc2c1=O [Example 44, 1-cyclopropyl-6-fluoro-8-chloro-7-(3,7-diazabicyclo[3.3.0]oct-1,5-en-3-yl)-3-(2-cyanoacetyl)-1,4-dihydro-4-oxoquinoline hydrochloride]	0.098	0.195	0.195	0.781	3.12	0.391	0.195	6.25	3.12	12.5	12.5	0.195	6.25	6.25	6.25	25	25	25	1.56	–	MIC [2]: 0.391 µg/mL
N#CC(C#N)C(=O)c1cn(C2CC2)c2c(Cl)c(N3CCC(N)C3)c(F)cc2c1=O (stereo not drawn) [Example 45, 1-cyclopropyl-6-fluoro-8-chloro-7-(3-aminopyrrolidin-1-yl)-3-(2,2-dicyanoacetyl)-1,4-dihydro-4-oxoquinoline hydrochloride]	0.098	0.195	0.049	0.195	1.56	0.195	0.049	3.12	0.781	3.12	6.25	0.098	1.56	1.56	0.781	6.25	25	25	0.781	0.391	–
CNCC1=CCN(c2c(F)cc3c(=O)c(C(=O)CS(C)(=O)=O)cn(C4CC4)c3c2Cl)C1 [Example 46, 1-cyclopropyl-6-fluoro-8-chloro-7-(3-methylaminomethyl-2,5-dihydropyrrol-1-yl)-3-(2-methanesulfonylacetyl)-1,4-dihydro-4-oxoquinoline hydrochloride]	0.049	0.098	0.025	0.098	0.391	0.049	0.013	0.781	0.195	1.56	1.56	0.195	0.049	0.049	0.098	0.195	1.56	0.391	0.098	0.013	–
CS(=O)(=O)CC(=O)c1cn(C2CC2)c2c(Cl)c(N3CC4=C(CNC4)C3)c(F)cc2c1=O [Example 47, 1-cyclopropyl-6-fluoro-8-chloro-7-(3,7-diazabicyclo[3.3.0]oct-1,5-en-3-yl)-3-(2-methanesulfonylacetyl)-1,4-dihydro-4-oxoquinoline hydrochloride]	0.049	0.049	0.195	0.391	0.781	0.195	0.098	0.781	0.195	0.781	1.56	0.098	–	0.391	0.391	0.781	1.56	–	0.391	0.049	MIC [7]: 0.195 µg/mL; MIC ([12]; Streptococcus pyogenes, 77A, 18 h): 0.781 µg/mL
CC(=O)C(C(C)=O)C(=O)c1cn(C2CC2)c2c(Cl)c(N3CCC(N)C3)c(F)cc2c1=O (stereo not drawn) [Example 48, 1-cyclopropyl-6-fluoro-8-chloro-7-(3-aminopyrrolidin-1-yl)-3-(2,2-diacetoacetyl)-1,4-dihydro-4-oxoquinoline hydrochloride]	0.098	0.098	0.049	0.195	0.391	0.049	0.195	1.56	0.781	3.12	3.12	0.391	0.195	0.195	0.195	0.195	0.781	0.391	0.098	0.195	–
